Where two headings read alike, the source gives them in different places.
How the values were obtained:
in vitro = settings: African green monkey, uninfected Vero E6 cells
[1] = test system: subdomain IIB of the rev recognition element (RRE) of the HIV-1 genomic RNA; settings: cited from earlier work
HIV-1 = settings: cited from earlier work
SARS-CoV-2 USA-WA1/2020 = experiment: microbe, parasite or virus in culture; assay type: cell-based; settings: Vero E6 cells, MOI 0.025, two days, read-out: SARS-CoV-2 EC50
[2] = ref 1 (Table S1 list: Prado et al. 2016)
[3] = ref 5 (Table S1 list: Sedgwick, Ph.D. thesis 2018)
[4] = Severe acute respiratory syndrome coronavirus 2, Vero C1008, 48 h
[5] = ref 2 (Table S1 list: Prado et al. 2018)
[6] = ref 4 (Table S1 list: Medina-Trillo et al. 2020)
[7] = ref 3 (Table S1 list: Simba-Lahuasi et al., Unpublished results)

Compound: CN1CCC(=C2c3ccccc3C=Cc3ccccc32)CC1 [Cyprohetadine, reference compound]
- CC50 at 2 days (in vitro): > 20 µM
- Previous target RNA binding [1, 2]: yes
- Previous target virus activity (HIV-1; [2]): yes

Compound: Cc1cc(-c2c(CCNC(=N)N)cccc2CCNC(=N)N)cc(C)c1-c1cc(CCCNC(=N)N)cc(CCCNC(=N)N)c1 [compound 18]
- CC50 at 2 days (in vitro): > 20 µM
- Previous target RNA binding [1, 3]: yes
- Previous target virus activity (HIV-1; [3]): yes
- EC50 (SARS-CoV-2 USA-WA1/2020; [4]): > 20 µM

Compound: OC(CNCC1CCCO1)Cn1c2ccc(Br)cc2c2cc(Br)ccc21 (stereo not shown) [1b]
- Previous target RNA binding [1, 5]: yes
- Previous target RNA binding [1, 6]: yes
- Previous target virus activity (HIV-1; [5]): yes
- Previous target virus activity (HIV-1; [6]): no

Compound: Cc1cc(-c2c(CCN)cccc2CCN)cc(C)c1-c1cc(CCN)c(Oc2ccccc2)c(CCN)c1 [compound 6]
- CC50 at 2 days (in vitro): > 20 µM
- Previous target RNA binding [1, 3]: yes
- Previous target virus activity (HIV-1; [3]): yes
- EC50 (SARS-CoV-2 USA-WA1/2020; [4]): > 20 µM

Compound: O=C(O)c1cn(C2CC2)c2cc(N3CCNCC3)c(F)cc2c1=O [Cyprofloxacine, reference compound]
- Previous target RNA binding [1, 2]: yes
- Previous target virus activity (HIV-1; [2]): yes
- EC50 (SARS-CoV-2 USA-WA1/2020; [4]): > 20 µM

Compound: C=C(C)Cn1c(NCCCn2ccnc2)nc2c1c(=O)[nH]c(=O)n2C [17a5]
- CC50 at 2 days (in vitro): > 20 µM
- Previous target RNA binding [1, 5]: yes
- Previous target virus activity (HIV-1; [5]): yes
- EC50 (SARS-CoV-2 USA-WA1/2020; [4]): > 20 µM

Compound: CCC(=C(c1ccccc1)c1ccc(OCCN(C)CCOc2ccc(C(=C(CC)c3ccccc3)c3ccccc3)cc2)cc1)c1ccccc1 [Tamoxifen dimer]
- CC50 at 2 days (in vitro): > 20 µM
- Previous target RNA binding ([1]; ref Unpublished): yes
- Previous target virus activity (HIV-1; ref Unpublished): no
- EC50 (SARS-CoV-2 USA-WA1/2020; [4]): > 20 µM

Compound: COc1ccc(-c2cc(C)c(-c3cc(CCN)c(OC)cc3CCN)cc2C)cc1CCN [3a]
- CC50 at 2 days (in vitro): > 20 µM
- Previous target RNA binding [1, 6]: yes
- Previous target virus activity (HIV-1; [6]): yes
- EC50 (SARS-CoV-2 USA-WA1/2020; [4]): > 20 µM

Compound: CCC(=C(c1ccc(OC)cc1)c1ccc(OC)cc1)c1cn(CC(O)CN(C)C)c2ccccc12 (stereo not shown) [Bisphenylindol]
- Previous target RNA binding [1, 7]: yes
- Previous target virus activity (HIV-1; [7]): yes
- EC50 (SARS-CoV-2 USA-WA1/2020; [4]): 2.1 µM

Compound: CN(C)CCOc1cc2c(c3ccccc13)-c1ccccc1C2=O [1a]
- Previous target RNA binding [1, 5]: yes
- Previous target RNA binding [1, 6]: yes
- Previous target virus activity (HIV-1; [5]): yes
- Previous target virus activity (HIV-1; [6]): yes
- EC50 (SARS-CoV-2 USA-WA1/2020): > 20 µM

Compound: CN(C)CCOc1ccc(C(=C(CCO)c2ccccc2)c2ccccc2)cc1 [βOH-tamoxifen]
- CC50 at 2 days (in vitro): 22.2 µM
- Previous target RNA binding ([1]; ref Unpublished): yes
- Previous target virus activity (HIV-1; ref Unpublished): yes
- EC50 (SARS-CoV-2 USA-WA1/2020; [4]): 5.4 µM

Compound: Trans-clomiphene
- Previous target RNA binding ([1]; ref Unpublished): yes
- Previous target virus activity (HIV-1; ref Unpublished): yes

Compound: CCN(CC)CCOc1ccc(C(O)(Cc2ccc(Cl)cc2)c2ccc(C)cc2)cc1 (stereo not shown) [Triparanol, reference compound]
- CC50 at 2 days (in vitro): > 20 µM
- Previous target RNA binding [1, 7]: yes
- Previous target virus activity (HIV-1; [7]): yes
- EC50 (SARS-CoV-2 USA-WA1/2020; [4]): 0.811 µM

Compound: Cc1cc(-c2c(CCN)cccc2CCN)cc(C)c1-c1cc(CCCN)c(O)c(CCCN)c1 [compound 11]
- CC50 at 2 days (in vitro): > 20 µM
- Previous target RNA binding [1, 3]: yes
- Previous target virus activity (HIV-1; [3]): yes
- EC50 (SARS-CoV-2 USA-WA1/2020; [4]): > 20 µM

Compound: CCC(=C(c1ccccc1)c1ccc(OCCN(C)C)cc1)c1ccc(O)cc1 [4'OH-tamoxifen]
- CC50 at 2 days (in vitro): 2.7 µM
- Previous target RNA binding ([1]; ref Unpublished): yes
- Previous target virus activity (HIV-1; ref Unpublished): yes
- EC50 (SARS-CoV-2 USA-WA1/2020; [4]): 0.74 µM

Compound: O=C1c2c(O)ccc(O)c2C(=O)c2c(NCCNCCO)ccc(NCCNCCO)c21 [Mitoxantrone, reference compound]
- CC50 at 2 days (in vitro): 0.806 µM
- Previous target RNA binding [1, 2]: yes
- Previous target virus activity (HIV-1; [2]): yes
- EC50 (SARS-CoV-2 USA-WA1/2020; [4]): 2.4 µM

Compound: Cc1cc(-c2cc(CCN)ccc2CCN)c(C)cc1-c1ccccc1CCN [compound 4]
- CC50 at 2 days (in vitro): > 20 µM
- Previous target RNA binding [1, 6]: yes
- Previous target virus activity (HIV-1; [6]): yes
- EC50 (SARS-CoV-2 USA-WA1/2020; [4]): > 20 µM

Compound: COc1ccc(-c2ccc(-c3ccc(O)c(CCN)c3)c(C)c2)c(CCN)c1 [compound 1]
- CC50 at 2 days (in vitro): > 20 µM
- Previous target RNA binding [1, 3]: yes
- EC50 (SARS-CoV-2 USA-WA1/2020; [4]): > 20 µM
